# Tests used:
# [1] = target: T1, M1 (Homo sapiens, UniProt P11229); experiment: PDSP radioligand assay; assay type: binding
# T1 construct: purchased NIMH Psychoactive Drug Screening Program (PDSP)
# Method: (§1) The ex vivo binding affinities of σRs of CNY‐01 and CNY‐02 were measured using a competitive radioligand binding assay.^[ [35] ^]
# (§2) Details of individual binding assay conditions and protocols are available at the NIMH PDSP website: https://pdsp.unc.edu/pdspweb/.
# [2] = target: H3 (Homo sapiens, UniProt Q9Y5N1); experiment: PDSP radioligand assay; assay type: binding
# H3, sequence (Q9Y5N1 whole entry): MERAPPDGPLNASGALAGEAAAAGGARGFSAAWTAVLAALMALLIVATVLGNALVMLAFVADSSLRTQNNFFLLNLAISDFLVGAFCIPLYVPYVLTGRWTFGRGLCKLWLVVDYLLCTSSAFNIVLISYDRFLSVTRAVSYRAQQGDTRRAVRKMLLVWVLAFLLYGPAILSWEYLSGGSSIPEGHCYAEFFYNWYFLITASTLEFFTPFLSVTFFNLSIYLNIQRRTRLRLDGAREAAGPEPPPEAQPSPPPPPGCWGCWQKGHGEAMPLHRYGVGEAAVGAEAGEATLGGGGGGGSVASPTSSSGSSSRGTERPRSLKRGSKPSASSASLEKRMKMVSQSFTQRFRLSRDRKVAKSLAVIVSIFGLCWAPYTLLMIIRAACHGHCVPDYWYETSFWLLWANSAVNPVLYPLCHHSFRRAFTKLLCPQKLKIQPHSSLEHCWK
# Method: as §1, §2
# [3] = target: KOR (Homo sapiens, UniProt P41145); experiment: PDSP radioligand assay; assay type: binding
# KOR, sequence (P41145 whole entry): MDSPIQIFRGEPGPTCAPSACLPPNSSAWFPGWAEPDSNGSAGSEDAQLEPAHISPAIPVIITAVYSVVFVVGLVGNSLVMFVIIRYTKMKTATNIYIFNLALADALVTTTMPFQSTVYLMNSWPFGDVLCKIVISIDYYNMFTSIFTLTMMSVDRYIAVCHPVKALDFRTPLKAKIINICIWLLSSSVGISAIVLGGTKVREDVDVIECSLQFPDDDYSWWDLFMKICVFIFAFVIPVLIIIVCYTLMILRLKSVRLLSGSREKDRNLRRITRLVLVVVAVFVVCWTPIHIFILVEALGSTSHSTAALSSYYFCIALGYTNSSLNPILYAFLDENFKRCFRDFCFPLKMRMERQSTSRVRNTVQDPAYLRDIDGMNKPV
# Method: as §1, §2
# [4] = target: T2, Beta1 (Homo sapiens, UniProt P08588); experiment: PDSP radioligand assay; assay type: binding
# T2 construct: purchased NIMH Psychoactive Drug Screening Program (PDSP)
# Method: as §1, §2
# [5] = target: T3, Alpha2A (Homo sapiens, UniProt P08913); experiment: PDSP radioligand assay; assay type: binding
# T3 sequence (P08913 1-465): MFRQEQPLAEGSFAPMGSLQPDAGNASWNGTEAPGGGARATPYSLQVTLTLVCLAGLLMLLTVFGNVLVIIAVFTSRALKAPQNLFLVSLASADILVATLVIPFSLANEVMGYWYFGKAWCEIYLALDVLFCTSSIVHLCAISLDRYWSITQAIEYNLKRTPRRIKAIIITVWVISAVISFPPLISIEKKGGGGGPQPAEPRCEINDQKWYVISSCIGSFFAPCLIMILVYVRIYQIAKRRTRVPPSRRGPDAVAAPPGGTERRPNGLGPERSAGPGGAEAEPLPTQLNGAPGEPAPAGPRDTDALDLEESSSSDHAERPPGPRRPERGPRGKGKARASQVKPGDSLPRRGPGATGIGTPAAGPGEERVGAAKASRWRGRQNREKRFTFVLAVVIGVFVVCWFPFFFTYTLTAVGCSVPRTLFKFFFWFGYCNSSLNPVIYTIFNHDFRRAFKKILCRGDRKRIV
# Method: as §1, §2
# [6] = target: T4, Alpha1B (Homo sapiens, UniProt P35368); experiment: PDSP radioligand assay; assay type: binding
# T4 construct: purchased NIMH Psychoactive Drug Screening Program (PDSP)
# T4 sequence (P35368 whole entry): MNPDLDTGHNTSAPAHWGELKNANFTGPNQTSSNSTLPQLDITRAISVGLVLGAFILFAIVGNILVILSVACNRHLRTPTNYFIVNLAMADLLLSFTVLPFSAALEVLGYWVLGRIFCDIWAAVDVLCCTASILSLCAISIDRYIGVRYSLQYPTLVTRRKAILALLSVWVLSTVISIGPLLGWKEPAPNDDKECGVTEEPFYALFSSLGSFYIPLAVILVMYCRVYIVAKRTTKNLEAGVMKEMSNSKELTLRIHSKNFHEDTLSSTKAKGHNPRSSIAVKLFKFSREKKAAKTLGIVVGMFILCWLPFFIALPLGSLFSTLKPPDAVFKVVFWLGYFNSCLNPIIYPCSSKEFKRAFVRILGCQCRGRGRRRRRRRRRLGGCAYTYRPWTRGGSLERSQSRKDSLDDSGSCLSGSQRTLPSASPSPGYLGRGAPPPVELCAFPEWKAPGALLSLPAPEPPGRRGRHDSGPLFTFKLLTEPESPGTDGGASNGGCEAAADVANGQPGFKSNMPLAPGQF
# Method: as §1, §2
# [7] = target: T5, 5-HT1E (Homo sapiens, UniProt P28566); experiment: PDSP radioligand assay; assay type: binding
# T5 construct: purchased NIMH Psychoactive Drug Screening Program (PDSP)
# T5 sequence (P28566 whole entry): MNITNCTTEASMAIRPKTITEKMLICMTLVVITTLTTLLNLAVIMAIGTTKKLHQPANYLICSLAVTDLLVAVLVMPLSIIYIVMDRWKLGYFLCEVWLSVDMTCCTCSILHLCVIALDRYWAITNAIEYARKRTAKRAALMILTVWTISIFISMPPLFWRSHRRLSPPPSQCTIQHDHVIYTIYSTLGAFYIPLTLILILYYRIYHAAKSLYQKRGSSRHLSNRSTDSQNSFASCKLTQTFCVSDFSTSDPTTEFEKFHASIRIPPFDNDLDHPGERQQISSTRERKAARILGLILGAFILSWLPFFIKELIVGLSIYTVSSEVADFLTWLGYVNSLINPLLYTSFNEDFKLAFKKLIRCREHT
# Method: as §1, §2
# [8] = target: M3 (Homo sapiens, UniProt P20309); experiment: PDSP radioligand assay; assay type: binding
# M3, sequence (P20309 whole entry): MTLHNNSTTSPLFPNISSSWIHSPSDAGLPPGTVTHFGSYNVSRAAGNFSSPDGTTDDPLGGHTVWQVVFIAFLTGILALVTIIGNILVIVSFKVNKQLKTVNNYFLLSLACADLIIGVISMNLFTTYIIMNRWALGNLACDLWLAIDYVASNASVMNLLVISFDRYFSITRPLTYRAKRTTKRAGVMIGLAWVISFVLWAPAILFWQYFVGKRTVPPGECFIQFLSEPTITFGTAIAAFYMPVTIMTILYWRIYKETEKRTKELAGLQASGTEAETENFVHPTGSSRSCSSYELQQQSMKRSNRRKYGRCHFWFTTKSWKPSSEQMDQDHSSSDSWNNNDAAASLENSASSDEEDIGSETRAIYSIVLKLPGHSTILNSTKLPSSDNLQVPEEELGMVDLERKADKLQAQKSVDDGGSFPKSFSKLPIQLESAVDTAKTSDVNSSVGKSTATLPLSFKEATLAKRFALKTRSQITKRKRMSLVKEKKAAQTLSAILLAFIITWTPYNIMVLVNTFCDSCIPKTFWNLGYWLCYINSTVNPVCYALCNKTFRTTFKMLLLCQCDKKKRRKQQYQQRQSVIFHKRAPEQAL
# Method: as §1, §2
# [9] = target: T6, Beta3 (Homo sapiens, UniProt P13945); experiment: PDSP radioligand assay; assay type: binding
# T6 construct: purchased NIMH Psychoactive Drug Screening Program (PDSP)
# Method: as §1, §2
# [10] = target: D5 (Homo sapiens, UniProt P21918); experiment: PDSP radioligand assay; assay type: binding
# D5, sequence (P21918 whole entry): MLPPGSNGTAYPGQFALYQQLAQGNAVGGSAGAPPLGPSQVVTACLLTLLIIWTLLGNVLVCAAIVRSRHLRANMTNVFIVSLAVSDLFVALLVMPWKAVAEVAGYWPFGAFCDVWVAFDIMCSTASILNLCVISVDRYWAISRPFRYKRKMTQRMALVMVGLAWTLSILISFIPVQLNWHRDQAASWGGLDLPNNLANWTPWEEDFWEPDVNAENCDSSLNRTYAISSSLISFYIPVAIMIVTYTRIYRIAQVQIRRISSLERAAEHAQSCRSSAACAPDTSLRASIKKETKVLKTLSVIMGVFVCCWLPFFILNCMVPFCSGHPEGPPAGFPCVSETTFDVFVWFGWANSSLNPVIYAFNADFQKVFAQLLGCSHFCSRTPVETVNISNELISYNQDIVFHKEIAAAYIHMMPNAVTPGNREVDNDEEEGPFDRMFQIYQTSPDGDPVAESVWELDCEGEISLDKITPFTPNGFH
# Method: as §1, §2
# [11] = target: T7, Alpha1A (Homo sapiens, UniProt P35348); experiment: PDSP radioligand assay; assay type: binding
# T7 construct: purchased NIMH Psychoactive Drug Screening Program (PDSP)
# T7 sequence (P35348 whole entry): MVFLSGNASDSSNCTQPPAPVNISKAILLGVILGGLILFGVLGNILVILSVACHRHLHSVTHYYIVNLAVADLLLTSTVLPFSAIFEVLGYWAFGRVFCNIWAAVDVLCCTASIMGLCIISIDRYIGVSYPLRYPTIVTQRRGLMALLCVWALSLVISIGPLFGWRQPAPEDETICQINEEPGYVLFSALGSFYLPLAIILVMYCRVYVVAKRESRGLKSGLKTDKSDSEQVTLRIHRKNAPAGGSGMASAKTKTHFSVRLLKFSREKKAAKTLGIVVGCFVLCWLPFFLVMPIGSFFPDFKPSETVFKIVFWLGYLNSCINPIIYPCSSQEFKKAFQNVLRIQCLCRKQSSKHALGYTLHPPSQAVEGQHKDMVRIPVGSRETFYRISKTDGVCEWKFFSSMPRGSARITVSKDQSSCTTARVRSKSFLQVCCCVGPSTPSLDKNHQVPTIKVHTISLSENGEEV
# Method: as §1, §2
# [12] = target: T8, Alpha2C (Homo sapiens, UniProt P18825); experiment: PDSP radioligand assay; assay type: binding
# T8 sequence (P18825 1-462): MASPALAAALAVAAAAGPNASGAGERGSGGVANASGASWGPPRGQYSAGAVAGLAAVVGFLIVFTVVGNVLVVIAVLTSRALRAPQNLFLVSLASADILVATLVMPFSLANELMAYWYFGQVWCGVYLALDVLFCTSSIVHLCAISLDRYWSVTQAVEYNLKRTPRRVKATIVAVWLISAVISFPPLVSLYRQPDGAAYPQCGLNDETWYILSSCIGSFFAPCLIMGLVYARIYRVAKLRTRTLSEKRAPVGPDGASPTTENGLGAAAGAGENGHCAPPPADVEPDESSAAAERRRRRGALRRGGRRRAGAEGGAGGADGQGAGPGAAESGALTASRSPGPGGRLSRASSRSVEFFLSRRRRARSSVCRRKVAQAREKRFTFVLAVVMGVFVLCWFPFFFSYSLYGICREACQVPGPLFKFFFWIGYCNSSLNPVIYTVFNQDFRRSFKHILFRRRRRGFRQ
# Method: as §1, §2
# [13] = target: T9, D4 (Homo sapiens, UniProt P21917); experiment: PDSP radioligand assay; assay type: binding
# T9 construct: purchased NIMH Psychoactive Drug Screening Program (PDSP)
# T9 sequence (P21917 whole entry): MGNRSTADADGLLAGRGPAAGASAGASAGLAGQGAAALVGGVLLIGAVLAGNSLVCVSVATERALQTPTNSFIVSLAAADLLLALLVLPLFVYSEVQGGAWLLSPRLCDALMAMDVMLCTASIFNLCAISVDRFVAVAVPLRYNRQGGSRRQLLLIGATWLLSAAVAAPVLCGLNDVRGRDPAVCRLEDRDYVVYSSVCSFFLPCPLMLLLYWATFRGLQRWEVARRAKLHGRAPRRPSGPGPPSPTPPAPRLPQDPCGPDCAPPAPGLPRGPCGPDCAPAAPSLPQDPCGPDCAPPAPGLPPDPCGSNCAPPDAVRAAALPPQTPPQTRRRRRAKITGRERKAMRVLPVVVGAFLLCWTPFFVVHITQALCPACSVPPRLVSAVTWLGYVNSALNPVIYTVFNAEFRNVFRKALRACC
# Method: as §1, §2
# [14] = target: 5-HT1B (Homo sapiens, UniProt P28222); experiment: PDSP radioligand assay; assay type: binding
# 5-HT1B, sequence (P28222 whole entry, species assumed): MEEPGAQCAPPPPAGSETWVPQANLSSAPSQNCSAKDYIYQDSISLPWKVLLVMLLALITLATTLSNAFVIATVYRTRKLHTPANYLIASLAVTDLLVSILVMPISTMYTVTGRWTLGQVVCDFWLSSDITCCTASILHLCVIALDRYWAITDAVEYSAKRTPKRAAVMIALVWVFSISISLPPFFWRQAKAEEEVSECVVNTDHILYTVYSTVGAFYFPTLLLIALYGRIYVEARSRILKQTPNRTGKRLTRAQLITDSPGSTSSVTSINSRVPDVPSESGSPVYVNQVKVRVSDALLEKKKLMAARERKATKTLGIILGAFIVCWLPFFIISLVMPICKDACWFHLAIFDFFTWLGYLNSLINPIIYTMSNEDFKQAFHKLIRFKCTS
# Method: as §1, §2
# [15] = target: T10, σ1R (Cavia porcellus, UniProt Q60492); experiment: Ex vivo competitive radioligand binding assay for σ1R, [3H](+)-pentazocine; set-up: species or system Dunkin Hartley guinea pig; conditions: guinea pig brain membranes
# T10 construct: guinea pig brain membranes protein; from tissue; host or cells: guinea pig brain membranes
# T10 sequence (Q60492 whole entry): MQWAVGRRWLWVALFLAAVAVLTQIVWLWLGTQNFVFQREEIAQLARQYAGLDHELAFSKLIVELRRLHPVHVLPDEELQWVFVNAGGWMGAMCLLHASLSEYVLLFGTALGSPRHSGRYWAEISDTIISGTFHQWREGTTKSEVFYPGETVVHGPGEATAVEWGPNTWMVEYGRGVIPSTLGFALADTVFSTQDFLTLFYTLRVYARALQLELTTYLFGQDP
# Method: as §1
# (§3) The following specific radioligands and tissue sources were used: (a) σ 1R, [^3H] (+)‐pentazocine, Dunkin Hartley guinea pig brain membranes; (b) σ 2R, [^3H]‐DTG, Dunkin Hartley guinea pig brain membranes. Membrane preparation of brain tissue was performed following the previously reported method.4 Generally, for σ 1R binding test, guinea pig brain membranes protein (5‐10 mg), [^3H]‐(+)‐pentazocine (4 nM), test compounds solution in various concentrations (10^−5 to 10^−10 M) were incubated at 25 °C for 180 min in Tris‐HCl buffer (pH 8.0). For σ 2R binding study, the membrane suspension was incubated with [^3H]‐DTG (3 nM), different concentration test compounds, within 400 nM (+)‐SKF10047 to block σ 1R. Nonspecific binding was conducted in both binding assays under similar conditions, adding […] haloperidol. After incubation, the mixture was rapidly filtrated through Whatman GF/B glass filters, washed twice and transferred to scintillation vials, and the radioactivity bound was measured by a Beckman LS 6500 liquid scintillation counter. Inhibition constants (Ki) were calculated based on the Cheng and Prusoff equation after the IC50 values were obtained.
# [16] = target: T11, M4 (Homo sapiens, UniProt P08173); experiment: PDSP radioligand assay; assay type: binding
# T11 construct: purchased NIMH Psychoactive Drug Screening Program (PDSP)
# [17] = target: T12, MOR (Homo sapiens, UniProt P35372); experiment: PDSP radioligand assay; assay type: binding
# T12 construct: purchased NIMH Psychoactive Drug Screening Program (PDSP)
# T12 sequence (P35372 whole entry): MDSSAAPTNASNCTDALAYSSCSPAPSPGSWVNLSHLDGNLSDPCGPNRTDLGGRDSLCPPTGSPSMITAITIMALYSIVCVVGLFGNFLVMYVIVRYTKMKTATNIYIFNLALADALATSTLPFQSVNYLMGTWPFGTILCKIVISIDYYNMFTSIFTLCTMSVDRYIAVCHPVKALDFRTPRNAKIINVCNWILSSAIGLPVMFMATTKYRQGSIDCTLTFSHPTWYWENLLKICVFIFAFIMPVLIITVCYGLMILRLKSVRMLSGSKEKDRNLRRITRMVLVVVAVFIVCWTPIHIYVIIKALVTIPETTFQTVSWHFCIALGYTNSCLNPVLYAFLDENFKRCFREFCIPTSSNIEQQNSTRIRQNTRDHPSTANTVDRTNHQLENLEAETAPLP
# [18] = test system: σ2R; experiment: Ex vivo competitive radioligand binding assay for σ2R, [3H]-DTG; set-up: species or system Dunkin Hartley guinea pig; conditions: selectivity ratio, guinea pig brain membranes
# Method: as §1
# as §3, with “Membrane preparation of brain tissue was performed following the previously reported method.4 Generally, for σ 1R binding test, guinea pig brain membranes protein (5‐10 mg), [^3H]‐(+)‐pentazocine (4 nM), test compounds solution in various concentrations (10^−5 to 10^−10 M) were incubated at 25 °C for 180 min in Tris‐HCl buffer (pH 8.0).” left out
structure (smiles),measurement,setting,value
"Cc1nc(-c2ccc(Cl)cc2)nc(OCCCN2CCN(C)CC2)c1Cl [CNY-02, 5‐chloro‐2‐(4‐chlorophenyl)‐4‐methyl‐6‐(3‐(4‐methylpiperazin‐1‐yl)propoxy)pyrimidine]",inhibition at 10 µM,[1],36%
same,inhibition at 10 µM,[2],42.9%
same,inhibition at 10 µM,[3],20.4%
same,inhibition at 10 µM,[4],3.55%
same,inhibition at 10 µM,[5],47.6%
same,inhibition at 10 µM,[6],-26.1%
same,inhibition at 10 µM,[7],27.8%
same,Ki,[8],0.727 µM
same,inhibition at 10 µM,[8],54%
same,inhibition at 10 µM,[9],-3.01%
same,Ki,[10],> 10 µM
same,inhibition at 10 µM,[10],58%
same,inhibition at 10 µM,[11],-1.08%
same,Ki,[12],3.77 µM
same,inhibition at 10 µM,[12],52.4%
same,inhibition at 10 µM,[13],17.8%
same,Ki,[14],3.74 µM
same,inhibition at 10 µM,[14],60.3%
same,Ki,[15],0.00205 µM
same,inhibition at 10 µM,[16],31.1%
same,inhibition at 10 µM,[17],-14.4%
same,σ2R/σ1R,[18],627
"COc1ccc(-c2nc(C)c(Cl)c(OCCCN3CCCCC3)n2)cc1 [CNY-01, 5‐chloro‐2‐(4‐methoxyphenyl)‐4‐methyl‐6‐(3‐(piperidin‐1‐yl)propoxy)pyrimidine]",inhibition at 10 µM,[1],22.3%
same,Ki,[2],1.06 µM
same,inhibition at 10 µM,[2],62.8%
same,Ki,[3],1.06 µM
same,inhibition at 10 µM,[3],61.1%
same,inhibition at 10 µM,[4],7.15%
same,Ki,[5],2.37 µM
same,inhibition at 10 µM,[5],55.9%
same,inhibition at 10 µM,[6],-11.4%
same,inhibition at 10 µM,[7],31.2%
same,inhibition at 10 µM,[8],16.3%
same,inhibition at 10 µM,[9],9.11%
same,inhibition at 10 µM,[10],27.2%
same,inhibition at 10 µM,[11],21.6%
same,Ki,[12],0.43 µM
same,inhibition at 10 µM,[12],85.1%
same,inhibition at 10 µM,[13],48%
same,Ki,[14],3.2 µM
same,inhibition at 10 µM,[14],79.8%
same,Ki,[15],0.00388 µM
same,inhibition at 10 µM,[16],20.6%
same,inhibition at 10 µM,[17],-16.4%
same,σ2R/σ1R,[18],322

# — paper PMC12140300, “Development of Carbon‐11 Labeled Pyrimidine Derivatives as Novel Positron Emission Tomography (PET) Agents Enabling Brain Sigma‐1 Receptor Imaging” (Advanced Science, 2025)
